Reference: paper PMC5635128 (Scientific Reports, 2017)

Key:
Assay in all cases: biochemical
Design in all cases: KINOMEscan competition binding assay, kinase captured on immobilized ligand, per cent of DMSO control
Settings in all cases: read-out: % Ctrl
TIE2 = target: T1, TIE2 (Homo sapiens, UniProt Q02763)
T1 construct: gene TEK
Procedure: (§1) Competition binding assays were performed by DiscoverX (Freemont, CA, USA). […] S-Score^35 = (number of non-mutant kinases with %Ctrl < 35)/(number of non-mutant kinases tested). […] Kds are calculated […] by measuring the amount of kinase captured on the solid support as a function of the test compound concentration (n = 2, mean ± range).

TLK1 = TLK1 (Homo sapiens, UniProt Q9UKI8)
Procedure: as §1

TLK2 = TLK2 (Homo sapiens, UniProt Q86UE8)
Procedure: as §1

TNIK = TNIK (Homo sapiens, UniProt Q9UKE5)
Procedure: as §1

TNK1 = TNK1 (Homo sapiens, UniProt Q13470)
Procedure: as §1

TNK2 = TNK2 (Homo sapiens, UniProt Q07912)
Procedure: as §1

TNNI3K = TNNI3K (Homo sapiens, UniProt Q59H18)
Procedure: as §1

TRKA = target: T2, TRKA (Homo sapiens, UniProt P04629)
T2 construct: gene NTRK1
Procedure: as §1

TRKB = target: T3, TRKB (Homo sapiens, UniProt Q16620)
T3 construct: gene NTRK2
Procedure: as §1

TRKC = target: T4, TRKC (Homo sapiens, UniProt Q16288)
T4 construct: gene NTRK3
Procedure: as §1

TRPM6 = TRPM6 (Homo sapiens, UniProt Q9BX84)
Procedure: as §1

TSSK1B = TSSK1B (Homo sapiens, UniProt Q9BXA7)
Procedure: as §1

TTK = TTK (Homo sapiens, UniProt P33981)
Procedure: as §1

TXK = TXK (Homo sapiens, UniProt P42681)
Procedure: as §1

[1] = target: T5, TYK2(JH1domain-catalytic) (Homo sapiens, UniProt P29597)
T5 construct: JH1domain-catalytic
Procedure: as §1

[2] = target: T6, TYK2(JH2domain-pseudokinase) (Homo sapiens, UniProt P29597)
T6 construct: JH2domain-pseudokinase
Procedure: as §1

TYRO3 = TYRO3 (Homo sapiens, UniProt Q06418)
Procedure: as §1

ULK1 = ULK1 (Homo sapiens, UniProt O75385)
Procedure: as §1

ULK2 = ULK2 (Homo sapiens, UniProt Q8IYT8)
Procedure: as §1

ULK3 = ULK3 (Homo sapiens, UniProt Q6PHR2)
Procedure: as §1

VEGFR2 = target: T7, VEGFR2 (Homo sapiens, UniProt P35968)
T7 construct: gene KDR
Procedure: as §1

VRK2 = VRK2 (Homo sapiens, UniProt Q86Y07)
Procedure: as §1

WEE1 = WEE1 (Homo sapiens, UniProt P30291)
Procedure: as §1

WEE2 = WEE2 (Homo sapiens, UniProt P0C1S8)
Procedure: as §1

WNK1 = WNK1 (Homo sapiens, UniProt Q9H4A3)
Procedure: as §1

WNK3 = WNK3 (Homo sapiens, UniProt Q9BYP7)
Procedure: as §1

YANK1 = target: T8, YANK1 (Homo sapiens, UniProt Q8WU08)
T8 construct: gene STK32A
Procedure: as §1

YANK2 = target: T9, YANK2 (Homo sapiens, UniProt Q9NY57)
T9 construct: gene STK32B
Procedure: as §1

YANK3 = target: T10, YANK3 (Homo sapiens, UniProt Q86UX6)
T10 construct: gene STK32C
Procedure: as §1

YES = target: T11, YES (Homo sapiens, UniProt P07947)
T11 construct: gene YES1
Procedure: as §1

YSK1 = target: T12, YSK1 (Homo sapiens, UniProt O00506)
T12 construct: gene STK25
Procedure: as §1

YSK4 = target: T13, YSK4 (Homo sapiens, UniProt Q56UN5)
T13 construct: gene MAP3K19
Procedure: as §1

ZAK = target: T14, ZAK (Homo sapiens, UniProt Q9NYL2)
T14 construct: gene MAP3K20
Procedure: as §1

ZAP70 = ZAP70 (Homo sapiens, UniProt P43403)
Procedure: as §1

T9 sequence (Q9NY57 whole entry): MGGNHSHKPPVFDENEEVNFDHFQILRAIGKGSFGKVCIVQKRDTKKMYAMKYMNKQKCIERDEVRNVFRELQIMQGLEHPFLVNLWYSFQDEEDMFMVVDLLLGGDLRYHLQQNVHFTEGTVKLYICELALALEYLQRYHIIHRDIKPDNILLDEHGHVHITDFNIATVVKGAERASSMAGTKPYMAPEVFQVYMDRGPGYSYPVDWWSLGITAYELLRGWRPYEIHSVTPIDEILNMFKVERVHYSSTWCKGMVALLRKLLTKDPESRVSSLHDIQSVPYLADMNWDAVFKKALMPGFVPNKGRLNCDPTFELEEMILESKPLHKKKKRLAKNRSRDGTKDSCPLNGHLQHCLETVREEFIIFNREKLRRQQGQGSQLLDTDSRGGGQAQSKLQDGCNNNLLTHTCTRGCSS
Chain of TLK2 (Q86UE8 whole entry): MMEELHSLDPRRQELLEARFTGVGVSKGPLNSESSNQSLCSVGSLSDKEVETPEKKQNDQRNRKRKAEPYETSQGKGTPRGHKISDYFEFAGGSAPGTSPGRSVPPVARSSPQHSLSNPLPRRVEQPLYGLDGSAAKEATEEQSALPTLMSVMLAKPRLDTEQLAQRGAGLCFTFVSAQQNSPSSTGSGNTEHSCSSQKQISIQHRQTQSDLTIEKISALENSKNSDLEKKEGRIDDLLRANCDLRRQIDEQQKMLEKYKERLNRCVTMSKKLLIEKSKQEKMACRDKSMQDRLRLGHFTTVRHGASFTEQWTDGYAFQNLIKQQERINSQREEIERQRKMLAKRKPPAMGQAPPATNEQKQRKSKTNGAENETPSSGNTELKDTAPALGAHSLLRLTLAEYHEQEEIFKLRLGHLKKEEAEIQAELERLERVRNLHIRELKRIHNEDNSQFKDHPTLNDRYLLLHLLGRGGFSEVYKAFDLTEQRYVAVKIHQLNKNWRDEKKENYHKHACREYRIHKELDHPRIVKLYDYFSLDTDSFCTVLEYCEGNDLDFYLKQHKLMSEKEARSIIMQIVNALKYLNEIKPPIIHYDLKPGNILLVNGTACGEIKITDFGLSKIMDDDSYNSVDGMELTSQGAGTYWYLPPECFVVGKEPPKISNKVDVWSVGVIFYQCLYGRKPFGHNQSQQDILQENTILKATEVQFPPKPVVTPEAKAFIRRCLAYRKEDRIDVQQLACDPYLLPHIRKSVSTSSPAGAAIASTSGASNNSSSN
T14 sequence (Q9NYL2 whole entry): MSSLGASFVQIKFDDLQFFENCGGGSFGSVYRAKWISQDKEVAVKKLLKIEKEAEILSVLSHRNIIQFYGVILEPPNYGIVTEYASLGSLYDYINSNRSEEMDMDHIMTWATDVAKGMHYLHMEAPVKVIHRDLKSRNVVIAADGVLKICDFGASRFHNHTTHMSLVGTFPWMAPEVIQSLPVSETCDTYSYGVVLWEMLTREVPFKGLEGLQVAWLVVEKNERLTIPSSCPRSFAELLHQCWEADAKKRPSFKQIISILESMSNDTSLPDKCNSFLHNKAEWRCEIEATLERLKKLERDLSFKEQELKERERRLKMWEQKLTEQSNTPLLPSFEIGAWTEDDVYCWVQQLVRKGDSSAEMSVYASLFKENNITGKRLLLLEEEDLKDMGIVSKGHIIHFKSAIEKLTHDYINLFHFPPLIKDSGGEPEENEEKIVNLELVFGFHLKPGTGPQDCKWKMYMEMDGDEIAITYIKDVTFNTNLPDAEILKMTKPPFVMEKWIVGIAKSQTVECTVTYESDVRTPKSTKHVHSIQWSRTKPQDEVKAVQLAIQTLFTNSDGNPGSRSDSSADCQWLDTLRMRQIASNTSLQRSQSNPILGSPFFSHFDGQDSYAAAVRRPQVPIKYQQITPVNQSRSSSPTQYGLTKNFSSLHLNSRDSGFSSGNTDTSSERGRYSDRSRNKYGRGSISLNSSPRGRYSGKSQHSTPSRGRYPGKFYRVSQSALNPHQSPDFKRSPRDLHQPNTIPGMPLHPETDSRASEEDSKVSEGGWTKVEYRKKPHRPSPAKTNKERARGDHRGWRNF
T6 sequence (P29597 whole entry): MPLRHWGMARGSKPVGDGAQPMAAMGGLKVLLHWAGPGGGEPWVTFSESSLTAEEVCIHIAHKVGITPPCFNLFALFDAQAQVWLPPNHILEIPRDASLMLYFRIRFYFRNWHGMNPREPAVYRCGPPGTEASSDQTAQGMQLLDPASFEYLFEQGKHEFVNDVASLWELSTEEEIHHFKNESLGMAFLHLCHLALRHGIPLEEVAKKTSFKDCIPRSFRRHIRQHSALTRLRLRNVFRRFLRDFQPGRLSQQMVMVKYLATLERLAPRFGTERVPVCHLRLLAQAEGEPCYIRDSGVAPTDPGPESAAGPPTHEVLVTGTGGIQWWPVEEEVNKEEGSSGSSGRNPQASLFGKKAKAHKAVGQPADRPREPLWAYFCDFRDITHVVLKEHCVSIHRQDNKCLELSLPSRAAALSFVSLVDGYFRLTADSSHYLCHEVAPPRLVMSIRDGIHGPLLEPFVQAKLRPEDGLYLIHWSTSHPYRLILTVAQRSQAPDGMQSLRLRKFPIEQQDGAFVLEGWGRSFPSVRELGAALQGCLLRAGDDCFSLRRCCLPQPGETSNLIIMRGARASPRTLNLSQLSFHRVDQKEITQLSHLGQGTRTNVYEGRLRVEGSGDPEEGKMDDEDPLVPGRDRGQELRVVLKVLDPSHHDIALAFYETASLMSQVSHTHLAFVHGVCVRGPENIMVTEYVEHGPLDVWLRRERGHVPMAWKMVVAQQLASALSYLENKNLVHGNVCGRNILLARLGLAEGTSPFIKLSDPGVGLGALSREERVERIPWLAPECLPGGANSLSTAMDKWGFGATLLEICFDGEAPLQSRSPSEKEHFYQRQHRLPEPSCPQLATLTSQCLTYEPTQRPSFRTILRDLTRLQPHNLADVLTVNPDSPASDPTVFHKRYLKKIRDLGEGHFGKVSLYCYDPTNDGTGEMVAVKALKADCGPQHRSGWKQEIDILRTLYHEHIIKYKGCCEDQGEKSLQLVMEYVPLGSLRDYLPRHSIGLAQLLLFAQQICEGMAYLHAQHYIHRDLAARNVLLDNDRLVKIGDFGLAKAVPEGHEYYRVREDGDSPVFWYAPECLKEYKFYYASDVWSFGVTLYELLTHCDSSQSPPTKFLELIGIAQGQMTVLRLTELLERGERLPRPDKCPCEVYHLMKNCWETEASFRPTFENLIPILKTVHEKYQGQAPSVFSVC
T5 sequence (P29597 whole entry): as above
Chain of TNIK (Q9UKE5 whole entry): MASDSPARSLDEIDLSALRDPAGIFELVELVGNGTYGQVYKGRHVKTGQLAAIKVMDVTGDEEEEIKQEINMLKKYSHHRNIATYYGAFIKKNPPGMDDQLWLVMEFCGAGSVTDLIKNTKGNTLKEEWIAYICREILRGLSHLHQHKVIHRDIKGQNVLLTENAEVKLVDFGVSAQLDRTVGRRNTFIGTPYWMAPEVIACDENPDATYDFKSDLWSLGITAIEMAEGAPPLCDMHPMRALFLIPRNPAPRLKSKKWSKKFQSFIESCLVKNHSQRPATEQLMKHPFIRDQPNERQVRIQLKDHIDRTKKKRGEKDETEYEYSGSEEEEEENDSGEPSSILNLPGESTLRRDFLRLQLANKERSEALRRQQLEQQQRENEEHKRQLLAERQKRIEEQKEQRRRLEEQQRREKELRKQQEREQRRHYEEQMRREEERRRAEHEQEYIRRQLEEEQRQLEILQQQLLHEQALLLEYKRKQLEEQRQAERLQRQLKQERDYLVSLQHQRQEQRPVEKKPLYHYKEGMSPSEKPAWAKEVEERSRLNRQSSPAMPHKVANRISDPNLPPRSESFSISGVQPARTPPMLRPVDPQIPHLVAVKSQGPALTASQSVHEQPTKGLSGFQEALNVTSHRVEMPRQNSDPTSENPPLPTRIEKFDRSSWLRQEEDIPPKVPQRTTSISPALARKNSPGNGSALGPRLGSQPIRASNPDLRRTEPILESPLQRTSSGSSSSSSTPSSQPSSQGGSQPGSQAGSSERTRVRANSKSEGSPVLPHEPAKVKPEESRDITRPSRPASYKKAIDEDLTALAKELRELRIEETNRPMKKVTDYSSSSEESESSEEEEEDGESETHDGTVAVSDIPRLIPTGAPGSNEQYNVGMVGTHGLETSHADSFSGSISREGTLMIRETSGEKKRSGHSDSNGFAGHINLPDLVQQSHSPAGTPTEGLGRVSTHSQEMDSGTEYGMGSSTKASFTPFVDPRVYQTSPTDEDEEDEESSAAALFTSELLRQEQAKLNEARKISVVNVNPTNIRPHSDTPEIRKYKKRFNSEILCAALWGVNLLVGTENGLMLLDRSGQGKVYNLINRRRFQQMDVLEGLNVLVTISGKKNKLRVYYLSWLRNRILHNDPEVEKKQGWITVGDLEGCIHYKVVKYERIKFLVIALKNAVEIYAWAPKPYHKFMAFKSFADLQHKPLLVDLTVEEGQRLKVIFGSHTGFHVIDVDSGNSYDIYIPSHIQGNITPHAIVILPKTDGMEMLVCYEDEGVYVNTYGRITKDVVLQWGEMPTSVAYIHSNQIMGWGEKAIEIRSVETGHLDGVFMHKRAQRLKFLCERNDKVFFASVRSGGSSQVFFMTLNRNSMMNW
T8 sequence (Q8WU08 whole entry): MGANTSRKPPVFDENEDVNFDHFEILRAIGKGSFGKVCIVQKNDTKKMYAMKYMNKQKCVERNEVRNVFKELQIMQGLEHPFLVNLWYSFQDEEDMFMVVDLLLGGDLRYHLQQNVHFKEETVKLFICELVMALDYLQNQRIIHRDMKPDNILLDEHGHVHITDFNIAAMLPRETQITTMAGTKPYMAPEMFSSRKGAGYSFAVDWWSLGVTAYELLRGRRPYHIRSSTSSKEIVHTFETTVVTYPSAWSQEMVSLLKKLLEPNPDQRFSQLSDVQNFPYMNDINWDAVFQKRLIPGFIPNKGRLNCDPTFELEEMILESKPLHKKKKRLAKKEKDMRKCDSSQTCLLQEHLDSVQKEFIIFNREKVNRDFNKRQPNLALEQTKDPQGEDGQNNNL

`COc1cc(O)c2c(c1)OC(O)(c1ccc(OCc3ccccc3)cc1)CC2=O` (stereo not shown) [6E11, 2-(4-(benzyloxy)phenyl)-2,5-dihydroxy-7-methoxychroman-4-one] was tested, and the percent of control binding at 10 µM (TIE2) was 100%, the percent of control binding at 10 µM (TLK1) was 100% and the percent of control binding at 10 µM (TLK2) was 83%. The percent of control binding at 10 µM (TNIK) was 85%, the percent of control binding at 10 µM (TNK1) was 88% and the percent of control binding at 10 µM (TNK2) was 92%. The percent of control binding at 10 µM (TNNI3K) was 98%, the percent of control binding at 10 µM (TRKA) was 93% and the percent of control binding at 10 µM (TRKB) was 100%. It also gave a percent of control binding at 10 µM (TRKC) of 100%, a percent of control binding at 10 µM (TRPM6) of 60% and a percent of control binding at 10 µM (TSSK1B) of 83%. For the same compound, the percent of control binding at 10 µM (TTK) was 99%, the percent of control binding at 10 µM (TXK) was 100% and the percent of control binding at 10 µM [1] was 97%. It also gave a percent of control binding at 10 µM [2] of 86%, a percent of control binding at 10 µM (TYRO3) of 93% and a percent of control binding at 10 µM (ULK1) of 79%. The percent of control binding at 10 µM (ULK2) was 98%, the percent of control binding at 10 µM (ULK3) was 71% and the percent of control binding at 10 µM (VEGFR2) was 82%. It also gave a percent of control binding at 10 µM (VRK2) of 58%, a percent of control binding at 10 µM (WEE1) of 82% and a percent of control binding at 10 µM (WEE2) of 88%. The percent of control binding at 10 µM (WNK1) was 61%, the percent of control binding at 10 µM (WNK3) was 50% and the percent of control binding at 10 µM (YANK1) was 60%. The percent of control binding at 10 µM (YANK2) was 84%, the percent of control binding at 10 µM (YANK3) was 72% and the percent of control binding at 10 µM (YES) was 87%. It also gave a percent of control binding at 10 µM (YSK1) of 88%, a percent of control binding at 10 µM (YSK4) of 81% and a percent of control binding at 10 µM (ZAK) of 100%. The percent of control binding at 10 µM (ZAP70) was 100%.
